Measured values reported in patent US10899776B2, “Antiviral and antibacteria agents based on quaternary ammonium compound complexed with boric acid and its derivatives” (B-Organic Films Corp, priority 2015, dated 2021).

Tested on: White Spot Syndrome Virus (WSSV)
Experiment: Challenge of shrimp L. vannamei with White Spot Syndrome Virus, survival
Assay type: in vivo
Settings: for survival rate: positive control 10%
Protocol: The virus is isolated from WSSV-infected adult L. vannamei shrimp obtained from commercial farms located in Sinaloa, Mexico in 2013. Virus stocks were purified from infected shrimp homogenates by improved differential centrifugation as described previously by Du et al, (Du, H. H., Fu, L. L., Xu, Y. X., Kil, Z. S., Xu. Z. R. 2007. Aquaculture, 262:532-534) and then stored at −80° C. For assays, the WSSV stock is serially diluted to prepare solutions containing various target copy numbers determined by competitive PCR.
A volume of 20 μL of different dilutions of the tissue homogenate (containing WSSV in 330 mM of NaCl) is injected intramuscularly in fourth or fifth abdominal segment of L. vannamei using an insulin needle. The mortality is recorded twice a day and dead shrimp are tested by PCR to highlight the presence of WSSV.
There are two control groups: • 1.
The shrimp mortality percentage is recorded daily.
Dead shrimp are recorded daily during 120 hours.

For `C[N+](C)(C)CCOB1OB2OB(O1)OB1OB(O2)O1.[Cl-]` [choline/pentaborate complex], which “impact of WSSV infection (summary statement)” value (5 mg/g in feed diets, standardized injection protocols) is on record?
The value was “effective in reducing impact of WSSV infection”.

What about the survival (1% WSSV suspension, 96 h post-challenge, 5 mg/g feed, positive control about 35%, p<0.05) of the same molecule?
Its survival is 85%.

What about the survival (1% WSSV suspension, after 72 h, 5 mg/g feed, positive control about 65%) of the same molecule?
The survival was 95%.

What about the survival rate (3% WSSV suspension, 96 h post-challenge, 1 mg/g feed) of the same molecule?
The survival rate was about 40%.

What about the survival rate (3% WSSV suspension, 96 h post-challenge, 5 mg/g feed) of the same molecule?
The survival rate was about 40%.

And the survival (3% WSSV suspension, after 48 hours, 5 mg/g feed, positive control about 80%)?
Its survival is 95%.
